Legend:
[1] = test system: epidermis and subcutaneous muscle on the backside of mice; test: In vivo tissue compatibility, real-time bioluminescence (luminol) imaging of acute inflammation; settings: five hours post-injection
mice = settings: cited from earlier work
B16F10 melanoma cells = test: Murine melanoma model, inhibition of post-surgical residual melanoma; type: in vivo, C57BL/6 mice
[2] = test system: B16F10 murine melanoma cells; settings: cited from earlier work

Structure (SMILES) | acute inflammation at the implemented sites [1] | lethal dose (LD50) (mice) | mice with significant growth of the tumors (B16F10 melanoma cells; intratumoral syringe injection, single dose 50 μl, n=5, ten days post-inoculation) | local skin lesions (B16F10 melanoma cells; syringe injection) | half maximal inhibitory concentration (IC50) [2]
CCCCCCCCCCCCCC(=O)O[C@@H]1[C@@H](C)[C@@]2(O)[C@@H](C=C(CO)C[C@]3(O)C(=O)C(C)=C[C@@H]23)[C@@H]2C(C)(C)[C@]12OC(C)=O [PMA, phorbol 12-myristate 13-acetate] | acute inflammation appeared | – | – | – | –
COc1cccc2c1C(=O)c1c(O)c3c(c(O)c1C2=O)C[C@@](O)(C(=O)CO)C[C@@H]3O[C@H]1C[C@H](N)[C@H](O)[C@H](C)O1 [DOX, doxorubicin] | – | about 192 μg | four out of five mice | local skin lesions were observed | about 0.3 μg/ml
